This note sets out measurements from patent publication US20230129034A1, “TREATMENT OF DISEASE WITH ESTERS OF SELECTIVE RXR AGONISTS” (Io Therapeutics, Inc., priority 2017, published 2023).

What is called EC50 is the concentration that produces a half-maximal response. A lower EC50 goes with an effect from little substance. A word on the EC90: it is the point of the concentration-response curve where the effect stands at 90%. Low values mean an effect from little substance, high ones a need for much substance.

Molecules are shown by their SMILES. Entries after “also recorded” stand apart in the source; their conditions may differ. Some results are limits rather than exact numbers.

The subject of data set [1] is oligodendrocyte precursor cells (OPCs). The data set can be described thus: Oligodendrocyte precursor cell differentiation (PLP-EGFP OPCs). The class given is cell-based, mouse. As to conditions: for OPC differentiation into oligodendrocytes (EGFP positive cells): compared to negative control (DMSO). The source says:
OPCs were generated from a neurosphere culture of E14.5 PLP-EGFP (on C57BL/6J background) mouse brains. […] The EGFP expressing cells were quantified with Cellomics Neuronal Profiling Algorithm.
The EGFP expressing cells in controls and all compounds were quantified with Cellomics Neuronal Profiling Algorithm.

For data set [2], the system named is CNS infiltrating leukocytes in C57BL/6 (B6) mice. The data set can be described thus: CNS infiltrating cells in EAE B6 mice (flow cytometry, day 20). The class given is in vivo. The following applies: day 20 after immunization. As for the experimental part:
To determine whether a RXR agonist can reduce central nervous system (CNS) infiltrating cells, C57BL/6 (B6) mice were treated as described in Example 6. On day 20 after immunization, mice were sacrificed and perfused with phosphate buffered saline (PBS). Brain and spinal cord tissue was isolated, digested with DNase and LIBERASE DL® (Roche Diagnostics, Indianapolis, IN) for 30 minutes, and homogenized through 70 micron nylon mesh filters. Resulting cells were placed over a Percoll gradient to remove myelin. The remaining cells (microglia and CNS infiltrating cells) were counted, stained for molecules of interest, and run on a flow cytometer. Based on the frequencies obtained by FACS of these cell populations, total cell numbers of CNS infiltrating leukocytes expressing CD45, including CD4^+ T cells and CD11c^+ CD11b^+ myeloid dendritic cells (DC), were calculated.
On the technique in general: A flow cytometer gives signals particle by particle.

Data set [3] concerns demyelinated caudal cerebellar peduncles of one year old rats. The data set can be described thus: Focal toxin (ethidium bromide) induced rat model of demyelination. Format: in vivo. As to the method: The experiment uses rats of relatively advanced age (1 year) since such rats undergo remyelination in a less efficient manner, thereby providing data that are more relevant to the clinical treatment of human patients with multiple sclerosis or other demyelination disorders.
Focal demyelination is induced in one year old rats (approximately 300 g in weight) by injecting stereotactically 5 µl of ethidium bromide solution (0.01% vol/vol in saline) in a bilateral manner into the caudal cerebellar peduncles (CCP). […] The rats are killed on day 24 post-ethidium bromide treatment for analysis of remyelination by quantitative polymerase chain reaction (qPCR) and microscopy.

For data set [4], the system named is LXRα/RXR. Kind of data set: Permissive heterodimer transactivation assay, CV-1 cells, 3x(PLTP/LXRE)-tk-Luc. The following applies: 20 hr, luciferase vs T0901317. The class given is cell-based. The source says:
(§1) For PPARy: CV-1 cells were transfected with 3x(rAOX/DR1)-tk-Luc reporter gene and an expression vector for PPARy. For FXR:CV-1 cells were transfected with 3x(IBABP/IRI)-tk-Luc reporter gene and vectors for FXR and RXRα. For LXR:CV-1 cells were transfected with 3x(PLTP/LXRE)-tk-Luc reporter gene with vectors for LXRα or LXRβ. For Nurr1: COS7 cells were transfected with 3xNBRE-tk-luc reporter gene and full length Nurr-1 with or without full-length RXRα plasmid. […] Luciferase data were normalized to co-transfected β-gal activity. Luciferase activity was expressed as percent of maximal activity obtained using specific agonists. Rosiglitazone (PPARy), GW4064 (FXR), T0901317 (LXR).

Data set [5] relates to LXRβ/RXR. Described as above. Format: cell-based. As to conditions: 20 hr, luciferase vs T0901317.
Source text: as §1

A short description of data set [6]: Plasma and brain concentrations after intravenous injection in ICR mice (LC-MS/MS). The class given is in vivo. The following applies: 1 mg/kg IV. As to the method:
The compounds were dissolved in 4% DMSO, 1% Tween80 and 95% PBS(v/v) at a concentration of 0.2 mg/ml. Each mouse was injected with a volume to deliver 1 mg/kg of the compound (corresponding to 3 mg/m^2).
At designated time points (0.5, 1.5, and 3 hr), with the mice under terminal isofluorane anesthesia, systemic blood sample (ca 0.4-0.5 mL) were collected by cardiac puncture into micro-tube containing sodium EDTA-K2 as anti-coagulant (n=3 at each time point). Blood samples from the IRX4204EE arm of the study had appropriate esterase inhibitors added. The blood was centrifuged at 13000 rpm for 3 min at 4° C. to obtain plasma and protein was precipitated with acetonitrile prior to being assayed for compound content. The brain was removed and transferred to a pre-weighed vessel for weight determination. Brain tissue was homogenized in five volumes of PBS, centrifuged, and the supernatant assayed for compound content. […] The same standard curve was used to quantitate analyte concentrations in both brain and plasma.

In data set [7] the test system is experimental autoimmune encephalomyelitis (EAE) in C57BL/6 (B6) mice. The data set can be described thus: EAE in C57BL/6 (B6) mice, MOG peptide induced. The class given is in vivo. The following applies: 50 µg i.p. every other day from day 7. As to the method: Mice were also given 200 ng of pertussis toxin in PBS administered by inter-peritoneal (i.p.) injection on the same day as MOG emulsion injection (day 0) and 2 days later (day 2). […] Mice were scored using the following scale: 0 - Mice have no disease, 1 -Mice have distal limp tail or rear leg weakness (paresis), 1.5 - Mice have distal limp tail and rear leg weakness, 2 - Mice have complete limp tail and rear leg weakness, 2.5 - Mice have complete limp tail and weakness in both rear legs, 3 - Mice have complete limp tail and paralysis in both rear legs, 3.5 - Mice have complete limp tail, paralysis in both rear legs, and forelimb weakness. Mice receiving a score of 3.5 were immediately euthanized.

The target of data set [8] is T1, FXR/RXR (Homo sapiens, UniProt P19793).
T1 construct: expressed in transfected cells; host or cells: CV-1
T1 sequence (Q96RI1 whole entry partner, one chain of several): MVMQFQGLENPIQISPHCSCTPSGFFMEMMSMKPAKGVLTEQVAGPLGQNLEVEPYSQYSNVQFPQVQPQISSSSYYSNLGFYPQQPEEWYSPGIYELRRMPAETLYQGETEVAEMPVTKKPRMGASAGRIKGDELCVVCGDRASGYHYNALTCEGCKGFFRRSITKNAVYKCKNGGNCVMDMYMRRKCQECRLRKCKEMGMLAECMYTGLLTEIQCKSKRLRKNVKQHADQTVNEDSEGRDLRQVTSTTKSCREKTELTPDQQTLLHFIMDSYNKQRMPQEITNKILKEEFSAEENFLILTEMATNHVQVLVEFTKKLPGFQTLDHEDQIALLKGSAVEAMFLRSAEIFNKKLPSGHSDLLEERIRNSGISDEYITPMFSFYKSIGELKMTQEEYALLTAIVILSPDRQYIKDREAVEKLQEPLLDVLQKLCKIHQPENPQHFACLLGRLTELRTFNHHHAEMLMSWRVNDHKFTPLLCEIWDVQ
The data set can be described thus: Permissive heterodimer transactivation assay, CV-1 cells, 3x(IBABP/IRI)-tk-Luc. The class given is cell-based. As to conditions: 20 hr, luciferase vs GW4064.
Source text: as §1

The target in data set [9] is T2, RXRα (Homo sapiens, UniProt P19793).
T2 construct: an expression construct including a full length RXRα, RXRβ, or RXRy; expressed in transfected cells; host or cells: CV-1
T2 sequence (P19793 1-462): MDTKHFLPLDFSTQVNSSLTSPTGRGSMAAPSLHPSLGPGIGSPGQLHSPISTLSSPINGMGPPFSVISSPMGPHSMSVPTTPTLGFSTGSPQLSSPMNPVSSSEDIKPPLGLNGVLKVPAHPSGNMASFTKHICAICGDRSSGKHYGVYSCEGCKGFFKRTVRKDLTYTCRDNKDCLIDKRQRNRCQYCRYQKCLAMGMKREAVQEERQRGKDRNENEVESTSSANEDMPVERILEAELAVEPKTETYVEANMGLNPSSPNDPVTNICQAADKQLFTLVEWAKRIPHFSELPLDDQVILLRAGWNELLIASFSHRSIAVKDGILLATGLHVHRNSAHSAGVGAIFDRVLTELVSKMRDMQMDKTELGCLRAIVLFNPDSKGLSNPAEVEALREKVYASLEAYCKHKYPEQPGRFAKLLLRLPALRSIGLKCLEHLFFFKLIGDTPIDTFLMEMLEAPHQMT
The data set can be described thus: RXR homodimer transactivation assay (rCRBPII/RXRE-tk-Luc reporter, CV-1 cells). Format: cell-based. The source says: Data are mean values ± SE from five independent experiments.

[10] abbreviates: CV-1 cells, 20 hours, luciferase activity.
[11] abbreviates: 10 mg/kg/day oral gavage, day 7 to day 21.

As to `CCOC(=O)/C=C(C)/C=C/[C@@H]1C[C@]1(C)c1ccc2c(c1)C(C)(C)CCC2(C)C` [IRX4204EE, 3,7-dimethyl-6(S),7(S)-methano,7-[1,1,4,4-tetramethyl-1,2,3,4-tetrahydronaphth-7-yl]2(E),4(E) heptadienoic ethyl ester], the “OPC differentiation into oligodendrocytes (EGFP positive cells)” value in data set [1] was “essentially no activity; also recorded: considerably less active”. Further, in data set [2], the “infiltration of CD4+ cells into the CNS” value was “even greater reduction” and the “infiltration of CD11c+ CD11b+ cells (myeloid DC) into the CNS” value is “even greater reduction”. The “activity in focal toxin rat model relative to IRX4204 (same end-points)” value in [3] (rat, in vivo) is recorded as “somewhat more active than the free acid”. Further, in data set [4], the “activation of LXRα/RXR heterodimer” value is “very little activity”. In addition, the “activation of LXRβ/RXR heterodimer” value in [5] is “very little activity”. Moreover, the “concentration of the ester in the brain over the course of the experiment” value in [6] (0.5 to 3 hr) was “rose slightly”. For the same compound, the “concentration of the ester in blood compared with brain” value in [6] (3 hour time point) was “approximately the same”. In data set [6] (3 hours), the “blood concentration of the ester itself relative to IRX4204” value is reported as “about 5 fold” and the “concentration of IRX4204 in the blood from the ester form compared with the free acid form” value is “about the same”. The “blood concentration of IRX4204 due to conversion of IRX4204EE relative to that due to IV injection of IRX4204” value in data set [6] (half-hour time point) is “about one sixth”. The “symptoms of EAE (disease severity score)” value in [7] is listed as “more effective than IRX4204”. Also, the “activation of FXR/RXR heterodimer” value in data set [8] is reported as “very little activity”. In addition, in data set [9] (setting [10]), the EC50 was > 1000 nM.
Consider `CC(/C=C/[C@@H]1C[C@]1(C)c1ccc2c(c1)C(C)(C)CCC2(C)C)=C\C(=O)O` [IRX4204, 3,7-dimethyl-6(S),7(S)-methano,7-[1,1,4,4-tetramethyl-1,2,3,4-tetrahydronaphth-7-yl]2(E),4(E) heptadienoic acid], for which, in data set [1] (all tested concentrations but the lowest concentration (1^-6 µM)), the “OPC differentiation into oligodendrocytes by concentration” value is listed as “significant increase in OPC differentiation”. Further, the “total cell number and pyknotic cells” value in data set [1] (compared to controls) is given as “did not show any differences”. For the same compound, the “OPC differentiation into oligodendrocytes (EGFP positive cells)” value in data set [1] was “promotes OPC differentiation”. Moreover, in data set [2], the “infiltration of CD4+ cells into the CNS” value is listed as “significant reduction” and the “infiltration of CD11c+ CD11b+ cells (myeloid DC) into the CNS” value is reported as “significant reduction”. Besides, in [3] (setting [11]), the “Mbp expression (real-time qPCR of lesion samples)” value is reported as “increase in Mbp expression”, the “Nkx2.2+ oligodendrocyte precursor cells (OPCs) in lesions” value is reported as “increased”, the “Pdgfra expression (real-time qPCR of lesion samples)” value is “increase in Pdgfra expression” and the “density of CC1+ differentiated oligodendrocytes in lesions” value is “increased”. Also, in data set [3] (setting [11]), the “density of Olig2+ oligodendrocyte lineage cells in lesions” value was “increased” and the “remyelinated axons (ultrastructural analysis of CCP lesions)” value is “more remyelinated axons”. The “activation of LXRα/RXR heterodimer” value in data set [4] was “not to transactivate; also recorded: does not activate”. In [5], the “activation of LXRβ/RXR heterodimer” value is listed as “not to transactivate; also recorded: does not activate”. Moreover, the concentration at 3 h in [6] (male, ICR, mouse, brain, 3 hours post-administration) lay in the range of 7.9 to 8.2 nM. Besides, in data set [7], the “symptoms of EAE (disease severity score)” value is recorded as “significantly reduces the symptoms of EAE”. Moreover, the “activation of FXR/RXR heterodimer” value in data set [8] is “not to transactivate; also recorded: does not activate”. Also, the EC90 in data set [9] (CV-1) is ~0.1 nM. Also, the “Efficacy (% of 1 µM IRX4204) RXRα” value in data set [9] (setting [10]) is 100 % of 1 µM IRX4204.
